The text below walks through data of PubChem BioAssay (NCI).

Among the test systems are HCC-2998 colon; HCT-15 colon; SK-MEL-2 melanoma; NCI/ADR-RES ovarian; SNB-75 CNS; IGROV1 ovarian; OVCAR-8 ovarian; MDA-MB-231 breast; EKVX NSCLC; PC-3 prostate; K-562 leukemia; UACC-62 melanoma; ACHN renal; U251 CNS; CAKI-1 renal; MALME-3M melanoma; A498 renal.
Experiment in all cases: DTP human tumour cell line panel, 48 h

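Interpolation was linear, between the two tested concentrations surrounding the appropriate level; five concentrations were tested over 48 hours in 96-well plates. The concentration for full growth arrest is given as TGI.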

As to `COc1ccc2cc1Oc1ccc(cc1)C(Sc1ccccc1)CCOC(=O)CC2` (centres undefined), the total growth inhibition concentration (TGI) in the assay on HCC-2998 colon, in the assay on HCT-15 colon, in the assay on SK-MEL-2 melanoma, with NCI/ADR-RES ovarian, in the assay with SNB-75 CNS and in the assay with IGROV1 ovarian was > 100 µM in each case. Also, the concentration for total growth inhibition (TGI) with OVCAR-8 ovarian, with MDA-MB-231 breast, in the assay on EKVX NSCLC, with PC-3 prostate, in the assay on K-562 leukemia and in the assay on UACC-62 melanoma was > 100 µM each time. Besides, the TGI in the assay on ACHN renal, with U251 CNS, in the assay with CAKI-1 renal, with MALME-3M melanoma and with A498 renal was > 100 µM each time.
For `Cn1ccn2c3nc4ccccc4nc3c(=O)c(C#N)c12`, the TGI (commonly the concentration at which net growth stops) in the assay on HCC-2998 colon was > 100 µM; in the assay with HCT-15 colon, > 100 µM; in the assay with SK-MEL-2 melanoma it was > 100 µM; in the assay with NCI/ADR-RES ovarian, > 81.8 µM; in the assay with SNB-75 CNS, > 100 µM; with IGROV1 ovarian it was > 100 µM. Moreover, the total growth inhibition concentration (TGI) with OVCAR-8 ovarian, in the assay on MDA-MB-231 breast, in the assay on EKVX NSCLC, in the assay with PC-3 prostate, in the assay on K-562 leukemia and with UACC-62 melanoma was > 100 µM each time. In addition, the TGI with ACHN renal, in the assay with U251 CNS, in the assay on CAKI-1 renal, in the assay with MALME-3M melanoma and in the assay on A498 renal was > 100 µM in each case.
As to `COC(=O)C1=C(C)NC2(O)C=CC(=O)C3C(=O)N(c4ccccc4)C(=O)C132` (centres undefined), the TGI in the assay with HCC-2998 colon, with HCT-15 colon, in the assay on SK-MEL-2 melanoma, in the assay with NCI/ADR-RES ovarian, in the assay with SNB-75 CNS and in the assay with IGROV1 ovarian was > 100 µM in each case. In addition, the TGI in the assay on OVCAR-8 ovarian, in the assay with MDA-MB-231 breast, in the assay on EKVX NSCLC, in the assay on PC-3 prostate, in the assay with K-562 leukemia and in the assay on UACC-62 melanoma was > 100 µM each time. In addition, the total growth inhibition concentration (TGI) in the assay on ACHN renal was > 100 µM; in the assay with U251 CNS, > 100 µM; with CAKI-1 renal, > 100 µM; in the assay on MALME-3M melanoma, 88 µM; in the assay with A498 renal, > 100 µM.
Take `O=C(CN1CCN(Cc2ccccc2)CC1)N1CCCn2c1nc1ccccc1c2=O`: the concentration for total growth inhibition (TGI) in the assay with HCC-2998 colon, in the assay with HCT-15 colon, in the assay on SK-MEL-2 melanoma, in the assay with NCI/ADR-RES ovarian, in the assay on SNB-75 CNS and in the assay with IGROV1 ovarian was > 100 µM throughout. The TGI with OVCAR-8 ovarian, in the assay with MDA-MB-231 breast, in the assay on EKVX NSCLC, in the assay on PC-3 prostate, in the assay on K-562 leukemia and with UACC-62 melanoma was > 100 µM each time. The concentration for total growth inhibition (TGI) with ACHN renal, in the assay with U251 CNS, in the assay on CAKI-1 renal, with MALME-3M melanoma and in the assay on A498 renal was > 100 µM each time.
`CCOC(=O)N1CCN(c2ccc3c(C)cc(C)nc3n2)CC1`: the total growth inhibition concentration (TGI) in the assay on HCC-2998 colon, with HCT-15 colon, in the assay with SK-MEL-2 melanoma, in the assay on NCI/ADR-RES ovarian, in the assay with SNB-75 CNS and with IGROV1 ovarian was > 100 µM throughout. The TGI in the assay with OVCAR-8 ovarian, in the assay with MDA-MB-231 breast, with EKVX NSCLC, in the assay on PC-3 prostate, in the assay on K-562 leukemia and in the assay with UACC-62 melanoma was > 100 µM in each case. Moreover, the TGI in the assay on ACHN renal, in the assay with U251 CNS, with CAKI-1 renal, with MALME-3M melanoma and in the assay with A498 renal was > 100 µM each time.
Take `C=CCOc1ccccc1N=N/C(C#N)=N\Nc1ccccc1OCC=C`: the total growth inhibition concentration (TGI) in the assay with HCC-2998 colon, in the assay with HCT-15 colon, with SK-MEL-2 melanoma, in the assay with NCI/ADR-RES ovarian, in the assay with SNB-75 CNS and in the assay with IGROV1 ovarian was > 100 µM in each case. Moreover, the TGI in the assay with OVCAR-8 ovarian, with MDA-MB-231 breast, in the assay with EKVX NSCLC, with PC-3 prostate, in the assay on K-562 leukemia and in the assay on UACC-62 melanoma was > 100 µM in each case. For the same compound, the TGI in the assay on ACHN renal, with U251 CNS, in the assay with CAKI-1 renal, in the assay on MALME-3M melanoma and in the assay with A498 renal was > 100 µM each time.
Take `ClC(Cl)(Cl)C1=N[C@H]2[C@H](Br)[C@@H]3O[C@@H](c4ccccc4)[C@H](c4ccccc4)O[C@@H]3[C@H]2O1`: the TGI came out at 28.5 µM in the assay on HCC-2998 colon; 67.3 µM with HCT-15 colon; 31.3 µM in the assay on SK-MEL-2 melanoma; 65.2 µM with NCI/ADR-RES ovarian; 44 µM in the assay with SNB-75 CNS; 30.9 µM with IGROV1 ovarian. Moreover, the concentration for total growth inhibition (TGI) in the assay with OVCAR-8 ovarian was 33.3 µM; with MDA-MB-231 breast it was 50.1 µM; with EKVX NSCLC, 50.3 µM; in the assay on PC-3 prostate, 30.4 µM; in the assay on K-562 leukemia, 54 µM; in the assay on UACC-62 melanoma, 31.5 µM. Also, the TGI with ACHN renal came out at 31.3 µM; in the assay on U251 CNS, 31.2 µM; with CAKI-1 renal, 32.6 µM; in the assay on MALME-3M melanoma, 36.2 µM; in the assay with A498 renal, 31.3 µM.
Consider `CC(=O)N1CCc2c([nH]c3ccc(Br)cc23)C1c1ccccc1` (centres undefined), for which the total growth inhibition concentration (TGI) with HCC-2998 colon, in the assay with HCT-15 colon, with SK-MEL-2 melanoma, with NCI/ADR-RES ovarian, in the assay on SNB-75 CNS and in the assay on IGROV1 ovarian was > 10 µM each time. Besides, the concentration for total growth inhibition (TGI) in the assay with OVCAR-8 ovarian, with MDA-MB-231 breast, with EKVX NSCLC, in the assay on PC-3 prostate, with K-562 leukemia and in the assay with UACC-62 melanoma was > 10 µM each time. For the same compound, the concentration for total growth inhibition (TGI) in the assay with ACHN renal, in the assay on U251 CNS, with CAKI-1 renal, in the assay with MALME-3M melanoma and in the assay on A498 renal was > 10 µM in each case.
As to `NC(=Nc1ccc(O)cc1)S(=O)(=O)O`, the TGI with HCC-2998 colon, in the assay on HCT-15 colon, with SK-MEL-2 melanoma, in the assay with NCI/ADR-RES ovarian, in the assay on SNB-75 CNS and in the assay on IGROV1 ovarian was > 100 µM throughout. Also, the concentration for total growth inhibition (TGI) in the assay on OVCAR-8 ovarian, in the assay with MDA-MB-231 breast, in the assay with EKVX NSCLC, with PC-3 prostate, in the assay with K-562 leukemia and in the assay on UACC-62 melanoma was > 100 µM each time. For the same compound, the TGI with ACHN renal, with U251 CNS, with CAKI-1 renal, in the assay with MALME-3M melanoma and in the assay on A498 renal was > 100 µM throughout.
For the compound `CC(C(=O)ON1C(=O)CCC1=O)c1ccc(C(=O)c2ccccc2)s1` (centres undefined), the TGI in the assay on HCC-2998 colon, in the assay on HCT-15 colon, in the assay with SK-MEL-2 melanoma, in the assay on NCI/ADR-RES ovarian, with SNB-75 CNS and in the assay with IGROV1 ovarian was > 100 µM throughout. Also, the concentration for total growth inhibition (TGI) in the assay on OVCAR-8 ovarian, in the assay on MDA-MB-231 breast, in the assay with EKVX NSCLC, in the assay on PC-3 prostate, in the assay on K-562 leukemia and in the assay with UACC-62 melanoma was > 100 µM in each case. Further, the TGI with ACHN renal, with U251 CNS, in the assay with CAKI-1 renal, in the assay with MALME-3M melanoma and in the assay on A498 renal was > 100 µM each time.
Regarding `C=CCOCn1cnc2c(N)ncnc21`, the concentration for total growth inhibition (TGI) with HCC-2998 colon, in the assay with HCT-15 colon, with SK-MEL-2 melanoma, in the assay with NCI/ADR-RES ovarian, with SNB-75 CNS and in the assay with IGROV1 ovarian was > 100 µM throughout. Further, the TGI with OVCAR-8 ovarian, in the assay with MDA-MB-231 breast, in the assay with EKVX NSCLC, in the assay with PC-3 prostate, with K-562 leukemia and in the assay with UACC-62 melanoma was > 100 µM each time. The concentration for total growth inhibition (TGI) in the assay on ACHN renal, in the assay on U251 CNS, in the assay on CAKI-1 renal, with MALME-3M melanoma and in the assay with A498 renal was > 100 µM throughout.
On to `O=C1C(F)=CC(COC(c2ccccc2)(c2ccccc2)c2ccccc2)OC1n1cc(F)c(=O)[nH]c1=O` (centres undefined), for which the total growth inhibition concentration (TGI) in the assay on HCC-2998 colon is 14.1 µM; in the assay on HCT-15 colon, 5.95 µM; in the assay with SK-MEL-2 melanoma it was 7.49 µM; with NCI/ADR-RES ovarian it was 8.31 µM; in the assay on SNB-75 CNS it was 10.9 µM; in the assay with IGROV1 ovarian it was 6.79 µM. Further, the concentration for total growth inhibition (TGI) in the assay on OVCAR-8 ovarian was 7 µM; with MDA-MB-231 breast, 18.5 µM; with EKVX NSCLC, > 24.4 µM; in the assay on PC-3 prostate, 4.69 µM; in the assay with K-562 leukemia it was > 100 µM; in the assay with UACC-62 melanoma, 3.62 µM. In addition, the TGI in the assay with ACHN renal worked out at 3.08 µM; in the assay with U251 CNS, 4.71 µM; in the assay on CAKI-1 renal, 9.09 µM; with MALME-3M melanoma it was 31.4 µM; in the assay on A498 renal it was 24.4 µM.
